In patent US7329657B2, “Indazolyl-substituted pyrroline compounds as kinase inhibitors” (Ortho-McNeil Pharmaceutical, Inc., priority 2000, dated 2008):

How the values were obtained:
Type in all cases: biochemical
[1] = target: T1, recombinant rabbit GSK-3β protein (Oryctolagus cuniculus, UniProt G1T8E2); assay: Glycogen Synthase Kinase-3 Assay; settings: PPI-2 substrate, 33P-ATP, 90 minutes at 30° C.
T1 construct: purchased New England Biolabs
Protocol: Compounds were tested for the ability to inhibit recombinant rabbit GSK-3β protein using the following protocol. The test compound was added to a reaction mixture containing Protein phosphatase inhibitor-2 (PPI-2) (Calbiochem) (45 ng), rabbit GSK-3β protein (New England Biolabs) (0.75 units) and ^33P-ATP (1 μCi) in 50 mM Tris-HCl (pH 8.0), 10 mM MgCl2, 0.1% BSA, 1 mM DTT and 100 μM Sodium Vanadate. The mixture was reacted for 90 minutes at 30° C. to allow phosphorylation of the PPI-2 protein and then the protein in the reaction was precipitated using 10% TCA. The precipitated protein was collected on filter plates (MultiScreen-DV/Millipore), which were subsequently washed. Finally, the radioactivity was quantified using a TopCount Scintillation Counter (Packard).

[2] = target: PKC β-II (Homo sapiens, UniProt P05771); assay: Protein Kinase C Histone-Based Assay, β-II isoform; settings: histone III substrate, 30 μM ATP, 10 min at 30° C.; read-out: PKC Activity (IC50 μM, Histone Based Assay) Beta II
Protocol: (§1) Compounds were evaluated for PKC selectivity using histone III as the substrate. […] The reaction was incubated for 10 min at 30° C. Reactions were terminated by TCA precipitation and spotting on Whatman P81 filters. Filters were washed in 75 mM phosphoric acid and the radioactivity quantified by liquid scintillation counting.

[3] = target: PKC α (Homo sapiens, UniProt P17252); assay: Protein Kinase C Histone-Based Assay, α isoform; settings: histone III substrate, 30 μM ATP, 10 min at 30° C.; read-out: PKC Activity (IC50 μM, Histone Based Assay) Alpha
Protocol: as §1

[4] = target: PKC γ (Homo sapiens, UniProt P05129); assay: Protein Kinase C Histone-Based Assay, γ isoform; settings: histone III substrate, 30 μM ATP, 10 min at 30° C.; read-out: PKC Activity (IC50 μM, Histone Based Assay) Gamma
Protocol: as §1

PKC β-II, sequence (P05771 1-673 isoform P05771-2): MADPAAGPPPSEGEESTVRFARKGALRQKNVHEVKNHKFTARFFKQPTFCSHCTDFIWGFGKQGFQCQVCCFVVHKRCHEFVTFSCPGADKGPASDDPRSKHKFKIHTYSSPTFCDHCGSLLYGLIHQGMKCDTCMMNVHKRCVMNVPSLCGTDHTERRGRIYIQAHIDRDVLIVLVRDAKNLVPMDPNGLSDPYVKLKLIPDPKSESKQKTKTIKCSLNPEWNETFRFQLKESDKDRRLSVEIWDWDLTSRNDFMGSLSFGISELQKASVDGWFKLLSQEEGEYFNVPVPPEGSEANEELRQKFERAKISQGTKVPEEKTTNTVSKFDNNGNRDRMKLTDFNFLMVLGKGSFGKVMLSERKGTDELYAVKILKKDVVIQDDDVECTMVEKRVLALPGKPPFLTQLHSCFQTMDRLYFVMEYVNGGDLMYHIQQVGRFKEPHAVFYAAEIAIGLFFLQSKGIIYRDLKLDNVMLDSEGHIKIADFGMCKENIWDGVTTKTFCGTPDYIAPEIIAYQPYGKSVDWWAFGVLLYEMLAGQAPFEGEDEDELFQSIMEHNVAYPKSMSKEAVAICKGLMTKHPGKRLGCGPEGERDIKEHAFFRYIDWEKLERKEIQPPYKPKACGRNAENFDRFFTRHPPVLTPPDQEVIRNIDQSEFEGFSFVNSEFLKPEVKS
T1 sequence (G1T8E2 1-432): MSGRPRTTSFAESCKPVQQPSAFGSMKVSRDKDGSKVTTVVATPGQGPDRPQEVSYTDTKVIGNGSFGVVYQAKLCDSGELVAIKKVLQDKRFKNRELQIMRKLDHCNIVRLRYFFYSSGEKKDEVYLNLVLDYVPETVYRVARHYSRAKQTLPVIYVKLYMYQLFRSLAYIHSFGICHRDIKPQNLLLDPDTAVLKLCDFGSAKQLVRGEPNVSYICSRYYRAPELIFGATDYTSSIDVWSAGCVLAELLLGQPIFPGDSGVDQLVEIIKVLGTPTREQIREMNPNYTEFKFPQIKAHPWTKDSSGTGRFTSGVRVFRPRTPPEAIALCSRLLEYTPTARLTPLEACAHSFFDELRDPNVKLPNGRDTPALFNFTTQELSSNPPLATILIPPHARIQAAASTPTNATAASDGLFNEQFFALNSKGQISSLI

Compound	IC50 [1]	IC50 [2]	IC50 [3]	IC50 [4]
O=C1NC(=O)C(c2nn(CCCCO)c3ccccc23)=C1c1cn(-c2cccnc2)c2ccccc12 [Compound 111, 3-[1-(4-hydroxybutyl)-1H-indazol-3-yl]-4-[1-(3-pyridinyl)-1H-indol-3-yl]-1H-pyrrole-2,5-dione]	0.04 µM			
O=C1NC(=O)C(c2nn(CCCO)c3ccccc23)=C1c1cn(-c2ccccn2)c2ccccc12 [Compound 102, 3-[1-(3-hydroxypropyl)-1H-indazol-3-yl]-4-[1-(2-pyridinyl)-1H-indol-3-yl]-1H-pyrrole-2,5-dione]	0.21 µM			
O=C1NC(=O)C(c2cn(-c3cccnc3)c3ccccc23)=C1c1[nH]nc2ccccc12 [Compound 118, 3-(1H-indazol-3-yl)-4-[1-(3-pyridinyl)-1H-indol-3-yl]-1H-pyrrole-2,5-dione]	0.2 µM			
CCn1cc(C2=C(c3nn(CCCN(C)C)c4ccccc34)C(=O)NC2=O)c2cc(Cl)ccc21 [Compound 46, 3-(5-chloro-1-ethyl-1H-indol-3-yl)-4-[1-[3-(dimethylamino)propyl]-1H-indazol-3-yl]-1H-pyrrole-2,5-dione]	0.01 µM	0.005 µM	0.308 µM	0.123 µM
CNCCCn1nc(C2=C(c3cn(C)c4ccc(Cl)cc34)C(=O)NC2=O)c2ccccc21 [Compound 80, 3-(5-chloro-1-methyl-1H-indol-3-yl)-4-[1-[3-(methylamino)propyl]-1H-indazol-3-yl]-1H-pyrrole-2,5-dione]	0.051 µM	0.018 µM	0.328 µM	0.512 µM
C=Cn1cc(C2=C(c3nn(CCCN(C)C)c4ccccc34)C(=O)NC2=O)c2cc(Cl)ccc21 [Compound 6, 3-(5-chloro-1-ethenyl-1H-indol-3-yl)-4-[1-[3-(dimethylamino)propyl]-1H-indazol-3-yl]-1H-pyrrole-2,5-dione]	0.048 µM	0.013 µM	0.105 µM	0.129 µM
CCn1cc(C2=C(c3nn(CCCN(C)C)c4ccccc34)C(=O)NC2=O)c2cc(C#N)ccc21 [Compound 98, 3-[4-[1-[3-(dimethylamino)propyl]-1H-indazol-3-yl]-2,5-dihydro-2,5-dioxo-1H-pyrrol-3-yl]-1-ethyl-1H-indole-5-carbonitrile]	0.015 µM			
O=C1NC(=O)C(c2nn(CCCO)c3ccccc23)=C1c1cn(-c2cncc3ccccc23)c2ccccc12 [Compound 105, 3-[1-(3-hydroxypropyl)-1H-indazol-3-yl]-4-[1-(4-isoquinolinyl)-1H-indol-3-yl]-1H-pyrrole-2,5-dione]	0.073 µM			
CN(C)CCCn1nc(C2=C(c3cn(-c4ccccc4)c4ccc(Cl)cc34)C(=O)NC2=O)c2ccccc21 [Compound 48, 3-(5-chloro-1-phenyl-1H-indol-3-yl)-4-[1-[3-(dimethylamino)propyl]-1H-indazol-3-yl]-1H-pyrrole-2,5-dione]	0.09 µM			
O=CCCn1nc(C2=C(c3cn(-c4cccnc4)c4ccccc34)C(=O)NC2=O)c2ccccc21 [Compound 112, 1H-indazole-1-propanal, 3-[2,5-dihydro-2,5-dioxo-4-[1-(3-pyridinyl)-1H-indol-3-yl]-1H-pyrrol-3-yl]-1H-pyrrole-2,5-dione]	0.115 µM			
O=C1NC(=O)C(c2nn(CCCO)c3ccccc23)=C1c1cn(-c2cnc3ccccc3c2)c2ccccc12 [Compound 107, 3-[1-[3-hydroxypropyl]-1H-indazol-3-yl]-4-[1-(3-quinolinyl)-1H-indol-3-yl]-1H-pyrrole-2,5-dione]	0.82 µM	0.009 µM	0.098 µM	0.018 µM
CN(CCO)CCCn1nc(C2=C(c3cn(-c4cccnc4)c4ccccc34)C(=O)NC2=O)c2ccccc21 [Compound 114, 3-[1-[3-[(2-hydroxyethyl)methylamino]propyl]-1H-indazol-3-yl]-4-[1-(3-pyridinyl)-1H-indol-3-yl]-1H-pyrrole-2,5-dione]	0.155 µM	0.004 µM	0.047 µM	0.038 µM
CC(C)(C)OC(=O)NCCCn1nc(C2=C(c3cn(-c4cccnc4)c4ccccc34)C(=O)NC2=O)c2ccccc21 [Compound 115, [3-[3-[2,5-dihydro-2,5-dioxo-4-[1-(3-pyridinyl)-1H-indol-3-yl]-1H-pyrrol-3-yl]-1H-indazol-1-yl]propyl]-carbamic acid 1,1-dimethylethyl ester]	0.055 µM			
CCn1cc(C2=C(c3nn(CCCN(C)C)c4ccccc34)C(=O)NC2=O)c2cccc(Cl)c21 [Compound 95, 3-(7-chloro-1-ethyl-1H-indol-3-yl)-4-[1-[3-(dimethylamino)propyl]-1H-indazol-3-yl]-1H-pyrrole-2,5-dione]	0.06 µM			
3-(1-ethyl-1H-indol-3-yl)-4-[1-[3-(4-morpholinyl)propyl]-1H-indazol-3-yl]-1H-pyrrole-2,5-dione [Compound 69]	0.018 µM	0.014 µM	0.25 µM	0.55 µM
CN(C)CCCn1nc(C2=C(c3cn(-c4cccs4)c4ccc(Cl)cc34)C(=O)NC2=O)c2ccccc21 [Compound 33, 3-[5-chloro-1-(2-thienyl)-1H-indol-3-yl]-4-[1-[3-(dimethylamino)propyl]-1H-indazol-3-yl]-1H-pyrrole-2,5-dione]	0.07 µM			
C=Cn1cc(C2=C(c3nn(CC(O)CN(C)C)c4ccccc34)C(=O)NC2=O)c2ccccc21 (centres unmarked) [Compound 1, 3-[1-[3-(dimethylamino)-2-hydroxypropyl]-1H-indazol-3-yl]-4-(1-ethenyl-1H-indol-3-yl)-1H-pyrrole-2,5-dione]	0.09 µM	0.014 µM	0.052 µM	0.058 µM
Cn1cc(C2=C(c3nn(CCCN4CCCC4)c4ccccc34)C(=O)NC2=O)c2cc(Cl)ccc21 [Compound 75, 3-(5-chloro-1-methyl-1H-indol-3-yl)-4-[1-[3-(1-pyrrolidinyl)propyl]-1H-indazol-3-yl]-1H-pyrrole-2,5-dione]	0.033 µM	0.01 µM	0.204 µM	0.175 µM
CN(C)CCCn1nc(C2=C(c3cn(-c4ccncc4)c4ccccc34)C(=O)NC2=O)c2ccccc21 [Compound 32, 3-[1-[3-(dimethylamino)propyl]-1H-indazol-3-yl]-4-[1-(4-pyridinyl)-1H-indol-3-yl]-1H-pyrrole-2,5-dione]	0.51 µM			
CCn1nc(C2=C(c3cn(CCCN4CCOCC4)c4ccccc34)C(=O)NC2=O)c2cc(Cl)ccc21 [Compound 86, 3-(5-chloro-1-ethyl-1H-indazol-3-yl)-4-[1-[3-(4-morpholinyl)propyl]-1H-indol-3-yl]-1H-pyrrole-2,5-dione]	0.13 µM			
C=Cn1cc(C2=C(c3nn(CC(O)CN(C)C)c4ccc(Cl)cc34)C(=O)NC2=O)c2ccccc21 (centres unmarked) [Compound 4, 3-[5-chloro-1-[3-(dimethylamino)-2-hydroxypropyl]-1H-indazol-3-yl]-4-(1-ethenyl-1H-indol-3-yl)-1H-pyrrole-2,5-dione]	0.27 µM			
O=C1NC(=O)C(c2nn(CCO)c3ccccc23)=C1c1cn(-c2cccnc2)c2ccccc12 [Compound 110, 3-[1-(2-hydroxyethyl)-1H-indazol-3-yl]-4-[1-(3-pyridinyl)-1H-indol-3-yl]-1H-pyrrole-2,5-dione]	0.075 µM			
Cn1cc(C2=C(c3nn(CCCO)c4ccccc34)C(=O)NC2=O)c2cc(Cl)ccc21 [Compound 74, 3-(5-chloro-1-methyl-1H-indol-3-yl)-4-[1-(3-hydroxypropyl)-1H-indazol-3-yl]-1H-pyrrole-2,5-dione]	0.014 µM			
COCCCn1nc(C2=C(c3cn(-c4cccnc4)c4ccccc34)C(=O)NC2=O)c2ccccc21 [Compound 117, 3-[1-(3-methoxypropyl)-1H-indazol-3-yl]-4-[1-(3-pyridinyl)-1H-indol-3-yl]-1H-pyrrole-2,5-dione]	0.07 µM	0.034 µM		
O=C1NC(=O)C(c2nn(CCOCCO)c3ccccc23)=C1c1cn(-c2cccnc2)c2ccccc12 [Compound 106, 3-[1-[2-(2-hydroxyethoxy)ethyl]-1H-indazol-3-yl]-4-[1-(3-pyridinyl)-1H-indol-3-yl]-1H-pyrrole-2,5-dione]	0.033 µM			
CC(=O)OCCCn1nc(C2=C(c3cn(C)c4ccc(Cl)cc34)C(=O)NC2=O)c2ccccc21 [Compound 76, 3-[1-[3-(acetyloxy)propyl]-1H-indazol-3-yl]-4-(5-chloro-1-methyl-1H-indol-3-yl)-1H-pyrrole-2,5-dione]	0.085 µM			
CN(C)CCCn1nc(C2=C(c3cn(C)c4ccc(Cl)cc34)C(=O)NC2=O)c2ccccc21 [Compound 43, 3-(5-chloro-1-methyl-1H-indol-3-yl)-4-[1-[3-(dimethylamino)propyl]-1H-indazol-3-yl]-1H-pyrrole-2,5-dione]	0.034 µM			
CCn1cc(C2=C(c3nn(CCCN(C)C)c4ccccc34)C(=O)NC2=O)c2ccc(Cl)cc21 [Compound 90, 3-(6-chloro-1-ethyl-1H-indol-3-yl)-4-[1-[3-(dimethylamino)propyl]-1H-indazol-3-yl]-1H-pyrrole-2,5-dione]	0.096 µM			
